Reference: ChEMBL document CHEMBL1201862, “PubChem BioAssay data set” (2004)
Active and inactive are the calls of the source.

Tests used:
[1] = rise of 4N DNA cells, HeLa – IC50, dose response (AID 1117351); assay type: functional, cell-based
[2] = rise of 2N DNA cells, HeLa – IC50, dose response (AID 1117349); assay type: functional, cell-based
[3] = toxicity toward immortalized ovarian surface epithelium – cell-based, plate reader, dry powder samples, cytotoxicity control for PAX8 inhibitor project, dose response (AID 743045); assay type: functional
[4] = IGROV1 cell killing – plate reader, dry powder samples, PAX8 inhibitor project, dose response (AID 743043); assay type: functional, cell-based; conditions: IGROV-1
Paired box protein Pax-8 = Paired box protein Pax-8 (Homo sapiens, UniProt Q06710); experiment: PAX8 transcriptional activity inhibition in RMG-I – RMG-I cells, luciferase, cherry-pick, dose response (AID 687027); assay type: functional, cell-based;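 also: luciferase reporter driven by Pax8 target thyroperoxidase promoter measured by SteadyGlo luminescence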
[5] = OVCAR-3 cell viability loss – plate reader, dry powder samples, PAX8 inhibitor project, dose response (AID 743044); assay type: functional, cell-based
[6] = OVCAR8 cell viability loss – plate reader, dry powder samples, PAX8 project, dose response (AID 743197); assay type: functional, cell-based; conditions: OVCAR-8
[7] = general cell-killing toxicity readout – plate reader, dry powder samples, cytotoxicity control for PAX8 inhibitor project, dose response (AID 743021); assay type: functional, cell-based
[8] = Dd2 parasite growth inhibition in erythrocytes – SYBR Green, dry powder samples, set 9, dose response (AID 1159568); assay type: functional, cell-based

Sequence of Paired box protein Pax-8 (Q06710 whole entry): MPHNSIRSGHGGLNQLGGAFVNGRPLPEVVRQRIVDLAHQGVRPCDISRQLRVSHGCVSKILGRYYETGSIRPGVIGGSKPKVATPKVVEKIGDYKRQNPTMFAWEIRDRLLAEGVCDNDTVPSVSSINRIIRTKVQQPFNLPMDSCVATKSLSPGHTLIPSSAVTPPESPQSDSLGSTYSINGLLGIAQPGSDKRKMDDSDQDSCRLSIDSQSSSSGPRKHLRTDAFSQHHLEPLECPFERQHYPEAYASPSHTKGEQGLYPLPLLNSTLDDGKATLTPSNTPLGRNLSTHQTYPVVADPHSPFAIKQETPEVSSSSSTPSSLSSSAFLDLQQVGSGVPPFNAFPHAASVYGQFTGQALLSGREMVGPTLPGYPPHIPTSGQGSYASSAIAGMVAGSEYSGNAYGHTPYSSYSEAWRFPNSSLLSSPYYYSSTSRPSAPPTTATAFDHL

## CO[C@@H]1[C@@H](OC)[C@H](C)[C@@](O)(CC(=O)O)O[C@H]1[C@H](C)[C@H]1O[C@@]2(CC[C@@](C)([C@H]3CC[C@@](C)([C@@H]4O[C@@H]([C@H]5O[C@](C)(O)[C@H](C)C[C@@H]5C)C[C@@H]4OC4C[C@H](OC)[C@@H](OC)[C@H](C)O4)O3)O2)C[C@H](O)[C@H]1C (stereo partly specified)
[1]
  IC50: > 10 µM (inactive)
[2]
  IC50: > 10 µM (inactive)

## Cc1ccc(S(=O)(=O)N(C)C[C@H]2Oc3cc(C#Cc4ccncc4)ccc3S(=O)(=O)N([C@@H](C)CO)C[C@H]2C)cc1
[3]
  AC50: 51.6 µM (active)
[4]
  AC50: 45.3 µM (active)
Paired box protein Pax-8
  AC50: 3.15 µM (active)
[5]
  AC50: 4.57 µM (active)
[6]
  AC50: 30.8 µM (active)

## O=C(Nc1ccc(F)cc1)N1C[C@@H]2N[C@H](C1)[C@@H]2c1ccc(/C=C/c2ccccc2)cc1
Paired box protein Pax-8
  AC50: 10.7 µM (active)
[6]
  AC50: 26 µM (active)
[7]
  AC50: 23.6 µM (active)

## CC(=O)Nc1ccn(C2COC(COC(=O)c3ccccc3)O2)c(=O)n1 (stereo unspecified)
[1]
  IC50: > 10 µM (inactive)
[2]
  IC50: > 10 µM (inactive)

## C[C@@H]1CCCCO[C@@H](CN(C)S(=O)(=O)c2ccc(F)cc2)[C@@H](C)CN([C@@H](C)CO)C(=O)c2cc(N(C)C)ccc2O1
[8]
  AC50: 2.56 µM (active)

## COc1ccc(-c2ccccc2[C@@H]2[C@@H](C#N)N(C(=O)NC3CCCCC3)[C@H]2CO)cc1
[8]
  AC50: 7.06 µM (active)

## O=S(=O)(c1cccs1)N1CCCCN2[C@H](CO)[C@H](c3ccc(/C=C/c4ccccc4)cc3)[C@H]2C1
[8]
  AC50: 3.42 µM (active)

## C[C@@H]1CN([C@H](C)CO)C(=O)c2cccc(NC(=O)c3ccc(-c4nccs4)cc3)c2O[C@H]1CN(C)C(=O)Nc1ccc(C(F)(F)F)cc1
[8]
  AC50: 7.49 µM (active)
